Measured values from patent publication US8735364B2, “Antisense modulation of apolipoprotein B expression” (Genzyme Corporation, priority 2001, dated 2014).
Oligonucleotides are written 5' to 3', each unit as a sugar letter and its base; * is a phosphorothioate linkage, no mark a phosphodiester; rarer units and linkages stand in square brackets, end groups in braces. Plain capitals give the bases only. e = 2'-O-(2-methoxyethyl) (MOE); [5mC] = 5-methylcytosine; d = 2'-deoxy (DNA)

Tests used:
[1] = system: mouse apolipoprotein B mRNA; assay: Inhibition of mouse apolipoprotein B mRNA levels in primary hepatocytes, quantitative real-time PCR; assay type: cell-based; design: %INHIB of mouse apolipoprotein B mRNA levels: concentration or dose not given beside the values; settings: for %INHIB of mouse apolipoprotein B mRNA levels: averages from two experiments
Protocol: Primary mouse hepatocytes were prepared from CD-1 mice purchased from Charles River Labs (Wilmington, Mass.) and were routinely cultured in Hepatoyte Attachment Media (Gibco) supplemented with 10% Fetal Bovine Serum (Gibco/Life Technologies, Gaithersburg, Md.), 250 nM dexamethasone (Sigma), and 10 nM bovine insulin (Sigma). Cells were seeded into 96-well plates (Falcon-Primaria #3872) at a density of 10000 cells/well for use in RT-PCR analysis.
(§1) When cells reached 80% confluency, they were treated with oligonucleotide. For cells grown in 96-well plates, wells were washed once with 200 μL OPTI-MEM™-1 reduced-serum medium (Gibco BRL) and then treated with 130 μL of OPTI-MEM™-1 containing 3.75 μg/mL LIPOFECTIN™ (Gibco BRL) and the desired concentration of oligonucleotide. After 4-7 hours of treatment, the medium was replaced with fresh medium. Cells were harvested 16-24 hours after oligonucleotide treatment.
(§2) Quantitation of apolipoprotein B mRNA levels was determined by real-time quantitative PCR using the ABI PRISM™ 7700 Sequence Detection System (PE-Applied Biosystems, Foster City, Calif.) according to manufacturer's instructions. This is a closed-tube, non-gel-based, fluorescence detection system which allows high-throughput quantitation of polymerase chain reaction (PCR) products in real-time. As opposed to standard PCR, in which amplification products are quantitated after the PCR is completed, products in real-time quantitative PCR are quantitated as they accumulate. This is accomplished by including in the PCR reaction an oligonucleotide probe that anneals specifically between the forward and reverse PCR primers, and contains two fluorescent dyes. A reporter dye (e.g., JOE, FAM, or VIC, obtained from either Operon Technologies Inc., Alameda, Calif. or PE-Applied Biosystems, Foster City, Calif.) is attached to the 5′ end of the probe and a quencher dye (e.g., TAMRA, obtained from either Operon Technologies Inc., Alameda, Calif. or PE-Applied Biosystems, Foster City, Calif.) is attached to the 3′ end of the probe. When the probe and dyes are intact, reporter dye emission is quenched by the proximity of the 3′ quencher dye. During amplification, annealing of the probe to the target sequence creates a substrate that can be cleaved by the 5′-exonuclease activity of Taq polymerase. […] With each cycle, additional reporter dye molecules are cleaved from their respective probes, and the fluorescence intensity is monitored at regular intervals by laser optics built into the ABI PRISM™ 7700 Sequence Detection System. In each assay, a series of parallel reactions containing serial dilutions of mRNA from untreated control samples generates a standard curve that is used to quantitate the percent inhibition after antisense oligonucleotide treatment of test samples.
(§3) PCR reagents were obtained from PE-Applied Biosystems, Foster City, Calif. RT-PCR reactions were carried out by adding 25 μL PCR cocktail (1× TAQMAN™ buffer A, 5.5 mM MgCl2, 300 μM each of DATP, dCTP and dGTP, 600 μM of dUTP, 100 nM each of forward primer, reverse primer, and probe, 20 Units RNAse inhibitor, 1.25 Units AMPLITAQ GOLD™, and 12.5 Units MuLV reverse transcriptase) to 96 well plates containing 25 μL total RNA solution. The RT reaction was carried out by incubation for 30 minutes at 48° C. Following a 10 minute incubation at 95° C. to activate the AMPLITAQ GOLD™, 40 cycles of a two-step PCR protocol were carried out: 95° C. for 15 seconds (denaturation) followed by 60° C. for 1.5 minutes (annealing/extension).
Gene target quantities obtained by real time RT-PCR are normalized using either the expression level of GAPDH, a gene whose expression is constant, or by quantifying total RNA using RiboGreen™ (Molecular Probes, Inc. Eugene, Oreg.). GAPDH expression is quantified by real time RT-PCR, by being run simultaneously with the target, multiplexing, or separately. Total RNA is quantified using RiboGreen™ RNA quantification reagent from Molecular Probes. […]

[2] = system: human apolipoprotein B mRNA; assay: Inhibition of human apolipoprotein B mRNA levels in HepG2 cells, quantitative real-time PCR; assay type: cell-based; design: %INHIB of human apolipoprotein B mRNA levels: concentration or dose not given beside the values; settings: averages from two experiments
Protocol: The human hepatoblastoma cell line HepG2 was obtained from the American Type Culture Collection (Manassas, Va.). HepG2 cells were routinely cultured in Eagle's MEM supplemented with 10% fetal calf serum, non-essential amino acids, and 1 mM sodium pyruvate (Gibco/Life Technologies, Gaithersburg, Md.). Cells were routinely passaged by trypsinization and dilution when they reached 90% confluence. Cells were seeded into 96-well plates (Falcon-Primaria #3872) at a density of 7000 cells/well for use in RT-PCR analysis.
as §1, §2, §3
Gene target quantities obtained by real time RT-PCR are normalized using either the expression level of GAPDH, a gene whose expression is constant, or by quantifying total RNA using RiboGreen™ (Molecular Probes, Inc. Eugene, Oreg.). GAPDH expression is quantified by real time RT-PCR, by being run simultaneously with the target, multiplexing, or separately. […]

| Substance | %INHIB of mouse apolipoprotein B mRNA levels [1] | also measured |
| --- | --- | --- |
| 147499 (antisense e[5mC]*eT*eG*e[5mC]*eA*dG*dG*dG*d[5mC]*dG*dT*d[5mC]*dA*dG*dT*eG*eA*e[5mC]*eA*eA) [compound 147499] | 29% |  |
| 147501 (antisense e[5mC]*eT*eT*eG*eG*dT*dT*dA*dA*dA*d[5mC]*dT*dA*dA*dT*eG*eG*eT*eG*e[5mC]) [compound 147501] | 18% |  |
| 147502 (antisense eA*eT*eG*eG*eG*dA*dG*d[5mC]*dA*dT*dG*dG*dA*dG*dG*eT*eT*eG*eG*e[5mC]) [compound 147502] | 16% |  |
| 147503 (antisense eA*eA*eT*eG*eG*dA*dT*dG*dA*dT*dG*dA*dA*dA*d[5mC]*eA*eG*eT*eG*eG) [compound 147503] | 26% |  |
| 147505 (antisense eG*eG*eA*eA*eG*dT*dG*dA*dG*dA*d[5mC]*dT*dT*dT*d[5mC]*eT*eA*eA*eG*e[5mC]) [compound 147505] | 76% |  |
| 147506 (antisense eA*eG*eG*eA*eA*dG*dG*dA*dA*d[5mC]*dT*d[5mC]*dT*dT*dG*eA*eT*eA*eT*eT) [compound 147506] | 58% |  |
| 147507 (antisense eA*eT*eT*eG*eG*d[5mC]*dT*dT*d[5mC]*dA*dT*dT*dG*dG*d[5mC]*eA*eA*e[5mC]*eA*e[5mC]) [compound 147507] | 81% |  |
| 147759 (antisense eA*eG*eG*eT*eG*dA*dG*dG*dA*dA*dG*dT*dT*dG*dG*eA*eA*eT*eT*e[5mC]) [compound 147759] | 19% |  |
| 147761 (antisense eG*eT*eT*e[5mC]*eA*dT*dG*dG*dA*dT*dT*d[5mC]*d[5mC]*dT*dT*e[5mC]*eA*eG*eG*eA) [compound 147761] | 45% |  |
| 147762 (antisense eA*eT*eG*e[5mC]*eT*d[5mC]*d[5mC]*dA*dT*dT*d[5mC]*dT*d[5mC]*dA*d[5mC]*eA*eT*eG*e[5mC]*eT) [compound 147762] | 46% |  |
| 147763 (antisense eT*eG*e[5mC]*eG*eA*d[5mC]*dT*dG*dT*dG*dT*d[5mC]*dT*dG*dA*eT*eT*eT*e[5mC]*e[5mC]) [compound 147763] | 34% |  |
| 147764 (antisense eG*eT*e[5mC]*e[5mC]*e[5mC]*dT*dG*dA*dA*dG*dA*dT*dG*dT*d[5mC]*eA*eA*eT*eG*e[5mC]) [compound 147764] | 97% | Percent Inhibition of mouse apolipoprotein B mRNA levels ([1]; 50 nM): 48%; Percent Inhibition of mouse apolipoprotein B mRNA levels ([1]; 150 nM): 84%; Percent Inhibition of mouse apolipoprotein B mRNA levels ([1]; 300 nM): 90% |
| 147765 (antisense eA*eG*eG*e[5mC]*e[5mC]*d[5mC]*dA*dG*dT*dT*d[5mC]*d[5mC]*dA*dT*dG*eA*e[5mC]*e[5mC]*e[5mC]*eT) [compound 147765] | 59% |  |
| 147766 (antisense eG*eG*eA*eG*e[5mC]*d[5mC]*d[5mC]*dA*d[5mC]*dG*dT*dG*d[5mC]*dT*dG*eA*eG*eA*eT*eT) [compound 147766] | 59% |  |
| 147767 (antisense e[5mC]*eG*eT*e[5mC]*e[5mC]*dT*dT*dG*dA*dG*d[5mC]*dA*dG*dT*dG*e[5mC]*e[5mC]*e[5mC]*eG*eA) [compound 147767] | 5% |  |
| 147768 (antisense e[5mC]*e[5mC]*e[5mC]*eA*eT*dA*dT*dG*dG*dA*dG*dA*dA*dA*dT*e[5mC]*e[5mC]*eT*eT*e[5mC]) [compound 147768] | 24% |  |
| 147769 (antisense e[5mC]*eA*eT*eG*e[5mC]*d[5mC]*dT*dG*dG*dA*dA*dG*d[5mC]*d[5mC]*dA*eG*eT*eG*eT*e[5mC]) [compound 147769] | 89% | Percent Inhibition of mouse apolipoprotein B mRNA levels ([1]; 50 nM): 3%; Percent Inhibition of mouse apolipoprotein B mRNA levels ([1]; 150 nM): 14%; Percent Inhibition of mouse apolipoprotein B mRNA levels ([1]; 300 nM): 28% |
| 147770 (antisense eG*eT*eG*eT*eT*dG*dA*dA*dT*d[5mC]*d[5mC]*d[5mC]*dT*dT*dG*eA*eA*eA*eT*e[5mC]) [compound 147770] | 67% |  |
| 147771 (antisense eG*eG*eT*eA*eA*dA*dG*dT*dT*dG*d[5mC]*d[5mC]*d[5mC]*dA*dT*eG*eG*e[5mC]*eT*eG) [compound 147771] | 68% |  |
| 147772 (antisense eG*eT*eT*eA*eT*dA*dA*dA*dG*dT*d[5mC]*d[5mC]*dA*dG*d[5mC]*eA*eT*eT*eG*eG) [compound 147772] | 78% |  |
| 147773 (antisense e[5mC]*eA*eT*e[5mC]*eA*dG*dA*d[5mC]*dG*dT*dG*dA*dT*dG*dT*eT*e[5mC]*e[5mC]*e[5mC]*eT) [compound 147773] | 85% |  |
| 147774 (antisense eT*eG*eG*e[5mC]*eT*dA*dG*dT*dT*dT*d[5mC]*dA*dA*dT*d[5mC]*e[5mC]*e[5mC]*e[5mC]*eT*eT) [compound 147774] | 84% |  |
| 147775 (antisense e[5mC]*eT*eG*eT*e[5mC]*dA*dT*dG*dA*d[5mC]*dT*dG*d[5mC]*d[5mC]*d[5mC]*eT*eT*eT*eA*e[5mC]) [compound 147775] | 52% |  |
| 147776 (antisense eG*e[5mC]*eT*eT*eG*dA*dA*dG*dT*dT*d[5mC]*dA*dT*dT*dG*eA*eG*eA*eA*eT) [compound 147776] | 92% | Percent Inhibition of mouse apolipoprotein B mRNA levels ([1]; 50 nM): 0%; Percent Inhibition of mouse apolipoprotein B mRNA levels ([1]; 150 nM): 17%; Percent Inhibition of mouse apolipoprotein B mRNA levels ([1]; 300 nM): 44% |
| 147778 (antisense eT*e[5mC]*eA*eG*eA*dT*dA*dT*dA*d[5mC]*dA*dT*dT*dG*dG*e[5mC]*eT*eT*e[5mC]*eA) [compound 147778] | 14% |  |
| 147780 (antisense e[5mC]*e[5mC]*eG*e[5mC]*eA*dG*dG*dT*d[5mC]*d[5mC]*d[5mC]*dG*dG*dT*dG*eG*eG*eA*eA*eT) [compound 147780] |  | %INHIB of human apolipoprotein B mRNA levels [2]: 40% |
| 147781 (antisense eA*e[5mC]*e[5mC]*eG*eA*dG*dA*dA*dG*dG*dG*d[5mC]*dA*d[5mC]*dT*e[5mC]*eA*eG*e[5mC]*e[5mC]) [compound 147781] |  | %INHIB of human apolipoprotein B mRNA levels [2]: 35% |
